Data as given in ChEMBL document CHEMBL3879889, “Compositions and methods for treating cancer” (2009).
Activity calls are given as the source filed them. The rule behind the calls is not given here.

Key:
[1] = Inhibition of HPV E6 protein interaction with MAGI-1 PDZ domain1 (unknown origin)
[2] = Inhibition of HPV E6 protein interaction with PSD95 PDZ domain1 (unknown origin)
[3] = Inhibition of HPV E6 protein interaction with PSD95 PDZ domain2 (unknown origin)
[4] = Inhibition of HPV E6 protein interaction with PSD95 PDZ domain3 (unknown origin)
[5] = Inhibition of HPV E6 protein interaction with shank1 (unknown origin)
[6] = Inhibition of HPV E6 protein interaction with Tip1 (unknown origin)
[7] = system: 3Y1; experiment: Antimigratory activity in rat 3Y1 cells transfected with pBLAST E6-16 at 40 uM after 24 hrs; format: functional, cell-based
[8] = system: 3Y1; experiment: Antiproliferative activity in rat 3Y1 cells transfected with pBLAST E6-16 at 40 uM after 24 to 96 hrs; format: functional, cell-based
[9] = Antiproliferative activity in rat 3Y1 cells transfected with pBLAST at 40 uM after 24 to 96 hrs; format: cell-based; conditions: 3y1, 40 µM
[10] = Cytotoxicity against HPV E6 transformed human SiHa cells assessed as cell viability at 60 uM treated 24 hrs post plating by WST-1 assay relative to control; format: functional; conditions: read-out: Activity
[11] = Cytotoxicity against HPV E6 transformed human HeLa cells assessed as cell viability at 60 uM treated 24 hrs post plating by WST-1 assay relative to control; format: functional; conditions: read-out: Activity
[12] = Cytotoxicity against HPV negative human C33A assessed as cell viability at 60 uM treated 24 hrs post plating by WST-1 assay relative to control; design: species or system C-33-A; conditions: C33A cells (HPV negative), read-out: Activity
[13] = Downregulation of E6 protein expression in HPV18 E6 transformed human HeLa cells at 60 to 120 uM after 24 hrs by Western blot method; format: functional, cell-based
[14] = Upregulation of p53 expression in HPV18 E6 transformed human HeLa cells at 80 to 120 uM after 24 hrs by immunocytochemical analysis relative to control; format: functional, cell-based
[15] = system: HeLa; experiment: Induction of morphological changes in HPV18 E6 transformed human HeLa cells assessed as cell shrinkage at 80 to 120 uM after 24 hrs; format: functional, cell-based

`CCc1cccc2c(C(c3ccccc3OCC(=O)O)c3c[nH]c4c(CC)cccc34)c[nH]c12` showed an IC50 [1] of 86.9 µM, an IC50 [2] of over 250 µM and an IC50 [3] of over 250 µM. It also gave an IC50 [4] of over 250 µM, an IC50 [5] of over 250 µM and an IC50 [6] of over 250 µM. For the same molecule, the Activity [7] was “Active”, the Activity [8] was “Active” and the Activity [9] was “Non-Toxic”. The viability at 60 µM [10] was 74.3%, the viability at 60 µM [11] was 70.1% and the viability at 24 h, 60 µM [12] was 104%. The Activity [13] was “Active”, the Activity [14] was “Active” and the Activity [15] was “Active”.
